For this assay, the target named is T1, Dimer of Gag-Pol polyprotein [501-599] (Human immunodeficiency virus 1, UniProt P03367).
T1 construct: 501-599
Description: Protease Inhibition Assay. The note with it: pH 5.5; 37 °C.

Usually Ki stands for the equilibrium dissociation constant of an inhibitor or competing ligand from its target.

With `Nc1cccc(CN2C(=O)N(Cc3cccc(N)c3)[C@H](Cc3ccccc3)[C@H](O)[C@@H](O)[C@H]2Cc2ccccc2)c1`, the affinity, expressed as Ki, was 0.34 nM. Take `O=C1N(CC2CCCC2)[C@H](Cc2ccccc2)[C@H](O)[C@@H](O)[C@@H](Cc2ccccc2)N1CC1CCCC1`: the Ki came to 4 nM. This Ki lies about 12-fold higher than the previous one.

These data come from BindingDB's records for doi:10.1021/jm9602571 (Dupont Pharmaceuticals, 1996).
